In PubChem BioAssay AID2060893 (Molecular Pharmacology Branch, DTP, NCI, 2025):
pIC50: −log10 of the molar value. One block for each compound: values may come before it.

Test system: K86415-001-R-J1-PDC complex spheroids, viability
Test: Anticancer human tumor K86415-001-R-J1-PDC patient-derived lung adenocarcinoma cell line growth inhibition [RAS]
Details: for pIC50: curve of first compound; for viability, T/C: stronger effect = lower value
Procedure, shortened: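 Multi-cell-type spheroids: tumor cells plus HUVEC endothelial cells and mesenchymal stem cells. RAS-pathway inhibitors were combined with targeted agents, each dosed in half-log steps down from clinical Cmax, or from 10 microM when Cmax was unknown.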

[1] = second compound 0.0316 µM, first compound 0.0316 µM
[2] = second compound 0.0316 µM, first compound 0.1 µM
[3] = second compound 0.0316 µM, first compound 0.316 µM
[4] = second compound 0.0316 µM, first compound 1 µM
[5] = second compound 0.0316 µM, first compound 3.16 µM
[6] = second compound 0.0316 µM, first compound 10 µM
[7] = second compound 0.1 µM, first compound 0.0316 µM
[8] = second compound 0.1 µM, first compound 0.1 µM
[9] = second compound 0.1 µM, first compound 0.316 µM
[10] = second compound 0.1 µM, first compound 1 µM
[11] = second compound 0.1 µM, first compound 3.16 µM
[12] = second compound 0.1 µM, first compound 10 µM
[13] = second compound 0.316 µM, first compound 0.0316 µM
[14] = second compound 0.316 µM, first compound 0.1 µM
[15] = second compound 0.316 µM, first compound 0.316 µM
[16] = second compound 0.316 µM, first compound 1 µM
[17] = second compound 0.316 µM, first compound 3.16 µM
[18] = second compound 0.316 µM, first compound 10 µM
[19] = second compound 1 µM, first compound 0.0316 µM
[20] = second compound 1 µM, first compound 0.1 µM
[21] = second compound 1 µM, first compound 0.316 µM
[22] = second compound 1 µM, first compound 1 µM
[23] = second compound 1 µM, first compound 3.16 µM
[24] = second compound 1 µM, first compound 10 µM
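Note: spheroids exposed to agents for seven days before readout.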

pIC50 (second compound 0.00316 µM): > 7.50
pIC50 (second compound 0.01 µM): > 7.50
pIC50 (second compound 0.0316 µM): > 7.50
pIC50 (second compound 0.1 µM): > 7.50
pIC50 (second compound 0.316 µM): > 7.50
pIC50 (second compound 1 µM): > 7.50
SMILES: CC1(O)CCCC1n1c(=O)c(C(F)F)cc2cnc(NC3CCN(S(C)(=O)=O)CC3)nc21 (stereo unspecified) + C=CC(=O)N1CCN(c2nc(OCC3CCCN3C)nc3c(F)c(-c4nc(N)cc(C)c4C(F)(F)F)c(Cl)cc23)C(C)C1
viability, T/C (second compound 0.00316 µM, first compound 0.0316 µM): 14.8%
viability, T/C (second compound 0.00316 µM, first compound 0.1 µM): 16.9%
viability, T/C (second compound 0.00316 µM, first compound 0.316 µM): 17.3%
viability, T/C (second compound 0.00316 µM, first compound 1 µM): 20.2%
viability, T/C (second compound 0.00316 µM, first compound 3.16 µM): 28.1%
viability, T/C (second compound 0.00316 µM, first compound 10 µM): 5.41%
viability, T/C (second compound 0.01 µM, first compound 0.0316 µM): 13.1%
viability, T/C (second compound 0.01 µM, first compound 0.1 µM): 12.6%
viability, T/C (second compound 0.01 µM, first compound 0.316 µM): 12.4%
viability, T/C (second compound 0.01 µM, first compound 1 µM): 12.3%
viability, T/C (second compound 0.01 µM, first compound 3.16 µM): 18.6%
viability, T/C (second compound 0.01 µM, first compound 10 µM): 5.34%
viability, T/C [1]: 12.2%
viability, T/C [2]: 10.1%
viability, T/C [3]: 10.1%
viability, T/C [4]: 14.8%
viability, T/C [5]: 16.2%
viability, T/C [6]: 4.92%
viability, T/C [7]: 12.1%
viability, T/C [8]: 10.8%
viability, T/C [9]: 10.5%
viability, T/C [10]: 11.5%
viability, T/C [11]: 19.4%
viability, T/C [12]: 4.11%
viability, T/C [13]: 11.4%
viability, T/C [14]: 11.6%
viability, T/C [15]: 11.4%
viability, T/C [16]: 11.4%
viability, T/C [17]: 16.2%
viability, T/C [18]: 5.89%
viability, T/C [19]: 10.4%
viability, T/C [20]: 10.3%
viability, T/C [21]: 13.7%
viability, T/C [22]: 14.7%
viability, T/C [23]: 18.9%
viability, T/C [24]: 5.93%

pIC50 (second compound 0.0316 µM): > 7.50
pIC50 (second compound 0.1 µM): > 7.50
pIC50 (second compound 0.316 µM): > 7.50
pIC50 (second compound 1 µM): > 7.50
pIC50 (second compound 3.16 µM): > 7.50
pIC50 (second compound 10 µM): > 7.50
SMILES: CC(=O)OC12COC1CC(O)C1(C)C(=O)C(O)C3=C(C)C(OC(=O)C(O)C(NC(=O)OC(C)(C)C)c4ccccc4)CC(O)(C(OC(=O)c4ccccc4)C21)C3(C)C (stereo unspecified) + C#Cc1c(F)ccc2cc(O)cc(-c3ncc4c(N5CC6CCC(C5)N6)nc(OCC56CCCN5CC(F)C6)nc4c3F)c12
viability, T/C [1]: 29.3%
viability, T/C [2]: 30.7%
viability, T/C [3]: 32.6%
viability, T/C [4]: 30.9%
viability, T/C [5]: 37.5%
viability, T/C [6]: 35.7%
viability, T/C [7]: 30.8%
viability, T/C [8]: 34.4%
viability, T/C [9]: 28.6%
viability, T/C [10]: 32%
viability, T/C [11]: 26.8%
viability, T/C [12]: 37%
viability, T/C [13]: 32.2%
viability, T/C [14]: 29.9%
viability, T/C [15]: 27.4%
viability, T/C [16]: 28.9%
viability, T/C [17]: 29.2%
viability, T/C [18]: 28.8%
viability, T/C [19]: 34.2%
viability, T/C [20]: 33.9%
viability, T/C [21]: 28.7%
viability, T/C [22]: 32.6%
viability, T/C [23]: 25.9%
viability, T/C [24]: 26.7%
viability, T/C (second compound 3.16 µM, first compound 0.0316 µM): 23.9%
viability, T/C (second compound 3.16 µM, first compound 0.1 µM): 26.8%
viability, T/C (second compound 3.16 µM, first compound 0.316 µM): 27.1%
viability, T/C (second compound 3.16 µM, first compound 1 µM): 26.5%
viability, T/C (second compound 3.16 µM, first compound 3.16 µM): 29.4%
viability, T/C (second compound 3.16 µM, first compound 10 µM): 24.5%
viability, T/C (second compound 10 µM, first compound 0.0316 µM): 20.1%
viability, T/C (second compound 10 µM, first compound 0.1 µM): 19.1%
viability, T/C (second compound 10 µM, first compound 0.316 µM): 19.5%
viability, T/C (second compound 10 µM, first compound 1 µM): 19.3%
viability, T/C (second compound 10 µM, first compound 3.16 µM): 18.2%
viability, T/C (second compound 10 µM, first compound 10 µM): 15.3%

pIC50 (second compound 0.00316 µM): > 9.02
pIC50 (second compound 0.01 µM): > 9.02
pIC50 (second compound 0.0316 µM): > 9.02
pIC50 (second compound 0.1 µM): > 9.02
pIC50 (second compound 0.316 µM): > 9.02
pIC50 (second compound 1 µM): > 9.02
SMILES: CCc1c2c(nc3ccc(O)cc13)-c1cc3c(c(=O)n1C2)COC(=O)[C@]3(O)CC + C=CC(=O)N1CCN(c2nc(OCC3CCCN3C)nc3c(F)c(-c4nc(N)cc(C)c4C(F)(F)F)c(Cl)cc23)C(C)C1
viability, T/C (second compound 0.00316 µM, first compound 0.000949 µM): 19.9%
viability, T/C (second compound 0.00316 µM, first compound 0.003 µM): 18.5%
viability, T/C (second compound 0.00316 µM, first compound 0.00949 µM): 14.5%
viability, T/C (second compound 0.00316 µM, first compound 0.03 µM): 13.7%
viability, T/C (second compound 0.00316 µM, first compound 0.0949 µM): 8.97%
viability, T/C (second compound 0.00316 µM, first compound 0.3 µM): 4.41%
viability, T/C (second compound 0.01 µM, first compound 0.000949 µM): 11.6%
viability, T/C (second compound 0.01 µM, first compound 0.003 µM): 10.7%
viability, T/C (second compound 0.01 µM, first compound 0.00949 µM): 11.3%
viability, T/C (second compound 0.01 µM, first compound 0.03 µM): 9.32%
viability, T/C (second compound 0.01 µM, first compound 0.0949 µM): 8.86%
viability, T/C (second compound 0.01 µM, first compound 0.3 µM): 4.64%
viability, T/C (second compound 0.0316 µM, first compound 0.000949 µM): 10.1%
viability, T/C (second compound 0.0316 µM, first compound 0.003 µM): 9.35%
viability, T/C (second compound 0.0316 µM, first compound 0.00949 µM): 8.29%
viability, T/C (second compound 0.0316 µM, first compound 0.03 µM): 8.73%
viability, T/C (second compound 0.0316 µM, first compound 0.0949 µM): 8.33%
viability, T/C (second compound 0.0316 µM, first compound 0.3 µM): 4.32%
viability, T/C (second compound 0.1 µM, first compound 0.000949 µM): 8.25%
viability, T/C (second compound 0.1 µM, first compound 0.003 µM): 9.14%
viability, T/C (second compound 0.1 µM, first compound 0.00949 µM): 10.9%
viability, T/C (second compound 0.1 µM, first compound 0.03 µM): 7.98%
viability, T/C (second compound 0.1 µM, first compound 0.0949 µM): 6.67%
viability, T/C (second compound 0.1 µM, first compound 0.3 µM): 3.89%
viability, T/C (second compound 0.316 µM, first compound 0.000949 µM): 10%
viability, T/C (second compound 0.316 µM, first compound 0.003 µM): 9.61%
viability, T/C (second compound 0.316 µM, first compound 0.00949 µM): 9.94%
viability, T/C (second compound 0.316 µM, first compound 0.03 µM): 10.7%
viability, T/C (second compound 0.316 µM, first compound 0.0949 µM): 7.22%
viability, T/C (second compound 0.316 µM, first compound 0.3 µM): 4.36%
viability, T/C (second compound 1 µM, first compound 0.000949 µM): 9.61%
viability, T/C (second compound 1 µM, first compound 0.003 µM): 11%
viability, T/C (second compound 1 µM, first compound 0.00949 µM): 8.27%
viability, T/C (second compound 1 µM, first compound 0.03 µM): 8.66%
viability, T/C (second compound 1 µM, first compound 0.0949 µM): 6.75%
viability, T/C (second compound 1 µM, first compound 0.3 µM): 2.88%
